The text below walks through data of patent US20230331737A1, “MTORC1 MODULATORS AND USES THEREOF” (Aeovian Pharmaceuticals, Inc., priority 2020, published 2023).

One experiment addresses mTORC2 (Homo sapiens, UniProt P42345+P62942). Kind of experiment: mTORC2 inhibition in PC3 cells, AlphaLISA of pAKT pS473 levels. (In general: Bead proximity is the source of the signal in Alpha formats.)
In experiment [1] the target is FKBP12 ternary complex with FRB (Homo sapiens, UniProt P42345+P62942). The experiment is described as follows: SPR assay to characterize ternary complex formation with FKBP12 (FRB injected over compound-saturated FKBP12). In kind it is binding. Conditions: FRB dilutions with 100 nM test compound over immobilized FKBP12.
Another experiment addresses T1, mTORC1 (Homo sapiens, UniProt P42345+P62942).
T1 construct: endogenous in cells; host or cells: PC-3 cells
The experiment is described as follows: mTORC1 inhibition in PC-3 cells, AlphaLISA of p70S6K pT389 levels. In kind it is cell-based. Conditions: mTORC1 as measured by inhibition of p70S6K pT389 levels, read-out: mTROC1 IC50. Here is the method: mTORC1 inhibition was determined via analysis of phosphorylation levels of Phospho-p70 S6 kinase (p70S6K pT389) and Phospho-S6 Ribosomal Protein (pRPS6 pS240/pS244) with the corresponding AlphaLISA kits (PerkinElmer Alpha SF Ultra™ Multiplex phospho (Thr389)/total p70 S6K Assay Kit (Eu/Tb) and AlphaLISA SF Ultra™ p-Ribosomal Protein S6 (Ser240/244) Assay Kit).
%−activity=100*((Sample−Low control)/(High control−Low control))

Another experiment deals with FKBP12 (Homo sapiens, UniProt P62942). Kind of experiment: SPR assay to determine binding affinity to FKBP12 (direct binding). The following applies: immobilized biotinylated avi-FKBP12, single-cycle kinetics. On the technique in general: SPR reads the build-up and loss of mass on a sensor chip optically.
Sequence of FKBP12 (P62942 whole entry, species assumed): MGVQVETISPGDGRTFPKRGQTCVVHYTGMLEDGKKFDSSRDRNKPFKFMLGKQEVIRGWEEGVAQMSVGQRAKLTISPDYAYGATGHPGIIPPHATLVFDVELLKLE

Each structure is given as a SMILES string.

Sequence of mTORC2 (P62942 2-108 limits assumed, other chains not shown): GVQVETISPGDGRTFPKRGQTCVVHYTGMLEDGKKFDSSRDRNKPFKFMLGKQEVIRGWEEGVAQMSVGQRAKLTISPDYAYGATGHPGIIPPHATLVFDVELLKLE

As usually defined, the IC50 is the concentration that gives 50% inhibition. In turn, `CO[C@H]1C[C@@H]2CC[C@@H](C)[C@@](O)(O2)C(=O)C(=O)N2CCCC[C@H]2C(=O)O[C@H]([C@H](C)C[C@@H]2CC[C@@H](OCCO)[C@H](OC)C2)CC(=O)[C@H](C)/C=C(\C)[C@@H](O)[C@@H](OC)C(=O)[C@H](C)C[C@H](C)/C=C/C=C/C=C/1C` [everolimus] gave an IC50 against mTORC2 of under 10 nM.

Broadly, the Kd is a measure of binding affinity in units of concentration. A low value points to higher affinity. Consider `CO[C@@H]1C[C@H](C[C@@H](C)[C@@H]2CC(=O)[C@H](C)/C=C(\C)[C@@H](O)[C@@H](OC)C(=O)[C@H](C)C[C@H](C)/C=C/C=C/C=C(\C)[C@@H](OC3CC3)C[C@@H]3CC[C@@H](C)[C@@](O)(O3)C(=O)C(=O)N3CCCC[C@H]3C(=O)O2)CC[C@H]1OCCO` [Compound 527, (1R,9S,12S,15R,16E,18R,19R,21R,23S,24E,26E,28E,30S,32S,35R)-30-(cyclopropoxy)-1,18-dihydroxy-12-[(1R)-2-[(1S,3R,4R)-4-(2-hydroxyethoxy)-3-methoxy-cyclohexyl]-1-methyl-ethyl]-19-methoxy-15,17,21,23,29,35-hexamethyl-11,36-dioxa-4-azatricyclo[30.3.1.04,9]hexatriaconta-16,24,26,28-tetraene-2,3,10,14,20-pentone], for which the Kd in experiment [1] was under 500 nM; at FKBP12 it was 0.3 to 1 nM. Besides, the IC50 at mTORC1 is under 0.8 nM.

As for `COCCO[C@H]1C[C@@H]2CC[C@@H](C)[C@@](O)(O2)C(=O)C(=O)N2CCCC[C@H]2C(=O)O[C@H]([C@H](C)C[C@@H]2CC[C@@H](OCCCO)[C@H](OC)C2)CC(=O)[C@H](C)/C=C(\C)[C@@H](O)[C@@H](OC)C(=O)[C@H](C)C[C@H](C)/C=C/C=C/C=C/1C` [Compound 427, (1R,9S,12S,15R,16E,18R,19R,21R,23S,24E,26E,28E,30S,32S,35R)-1,18-dihydroxy-12-[(1R)-2-[(1S,3R,4R)-4-(3-hydroxypropoxy)-3-methoxy-cyclohexyl]-1-methyl-ethyl]-19-methoxy-30-(2-methoxyethoxy)-15,17,21,23,29,35-hexamethyl-11,36-dioxa-4-azatricyclo[30.3.1.04,9]hexatriaconta-16,24,26,28-tetraene-2,3,10,14,20-pentone], the Kd in experiment [1] is under 500 nM; at FKBP12, 0.3 to 1 nM. The IC50 on mTORC1 is under 0.8 nM.
